# Test results from patent US20250108036A1, “COMPOSITIONS FOR REMOVING SENESCENT CELLS AND USES THEREOF” (LIFECEUTIX CO., LTD., priority 2021, published 2025).
# Where two headings read alike, the source gives them in different places.
# Key:
# Assay type in all cases: cell-based, human
# A549 = experiment: CellTiter-Glo cell viability of senescent A549 cancer cells (Example 12, Table 67); details: for Survival (%): doxorubicin-induced senescent A549 cancer cells
# HMGN1 [1] = experiment: HMGN1 ELISA in culture medium of foreskin cells (Examples 10, 11; Tables 62, 63, 64); details: Homo sapiens; for activity at 30 µM: read-out: HMGN1
# [2] = system: foreskin cells in which senescence was induced by doxorubicin; experiment: CellTiter-Glo cell viability of doxorubicin-induced senescent foreskin cells (Examples 1-2, 10, 11, 13; Tables 4, 63, 65); details: for viability at 90 µM: 90 μM test compound
# Experimental: After 3 days, cell viability was measured using CellTiter-Glo Luminescent Cell Viability Assay (Promega) or light microscopy.
# HMGN1 [3] = experiment: HMGN1 ELISA in culture medium of A549 cancer cells (Example 12, Table 66); details: Homo sapiens; for activity at 90 µM: test compound 90 μM
# [4] = Homo sapiens, A549, doxorubicin-induced senescent A549 cancer cells, 1.1 μM test compound, CellTiter-Glo, read-out: Survival (%)
# [5] = 30 μM test compound, doxorubicin-treated foreskin cells, DMSO = 100
# [6] = Homo sapiens, 72 h, 1.1 μM test compound, doxorubicin-induced senescent foreskin cells, CellTiter-Glo, 0 μM = 100, read-out: Survival (%)
# [7] = A549, doxorubicin-induced senescent A549 cells, test compound 30 μM, ELISA, DMSO = 100, read-out: HMGN1 (amount of HMGN1 secreted in the cell culture)
# [8] = Homo sapiens, A549, doxorubicin-induced senescent A549 cancer cells, 10 μM test compound, CellTiter-Glo, read-out: Survival (%)
# [9] = Homo sapiens, 72 h, […] test compound, doxorubicin-induced senescent foreskin cells, CellTiter-Glo, 0 μM = 100, read-out: Survival (%)
# [10] = Homo sapiens, A549, doxorubicin-induced senescent A549 cancer cells, 30 μM test compound, CellTiter-Glo, read-out: Survival (%)
# [11] = Homo sapiens, 72 h, 10 μM test compound, doxorubicin-induced senescent foreskin cells, CellTiter-Glo, 0 μM = 100, read-out: Survival (%)
# [12] = Homo sapiens, 72 h, 30 μM test compound, doxorubicin-induced senescent foreskin cells, CellTiter-Glo, 0 μM = 100, read-out: Survival (%)
# [13] = Homo sapiens, A549, read-out: Survival (%)
# [14] = Homo sapiens, 72 h, read-out: Survival (%)
# [15] = A549, read-out: HMGN1 (amount of HMGN1 secreted in the cell culture)
# [16] = A549, doxorubicin-induced senescent A549 cells, ELISA, DMSO = 100, read-out: HMGN1 (amount of HMGN1 secreted in the cell culture)
# [17] = Homo sapiens, A549, doxorubicin-induced senescent A549 cancer cells, 90 μM test compound, CellTiter-Glo, read-out: Survival (%)
# [18] = Homo sapiens, 72 h, doxorubicin-induced senescent foreskin cells, CellTiter-Glo, 0 μM = 100, read-out: Survival (%)
Structure (SMILES),viability at 1.1 µM (A549; [4]),activity at 30 µM (HMGN1 [1]; [5]),"viability at 1.1 µM [2, 6]",activity at 30 µM (HMGN1 [3]; [7]),viability at 10 µM (A549; [8]),"viability at […] [2, 9]",also measured
C#CCOc1ccc2[nH]c3c(c2c1)C[C@H](C(=O)OC)N(C(=O)CCl)[C@H]3c1ccc(C(=O)NC23CC4CC(CC(C4)C2)C3)cc1 [LX-415],15.6%,295%,0.4%,297%,–,–,–
CCC[C@H]1C(=O)C(C#N)C[C@@]2(C)c3nc(-c4cccc5ncccc45)nc(-c4ccccc4F)c3CC[C@H]12 (stereo partly drawn) [LX-2503],105%,297%,82.4%,285%,31.2%,25.8%,–
CCC(=O)NC[C@]12CCC(C)(C)C[C@H]1[C@H]1C(=O)C=C3[C@@]4(C)C=C(C#N)C(=O)C(C)(C)[C@@H]4CC[C@@]3(C)[C@]1(C)CC2 [LX-2510],95.7%,288%,62.9%,317%,2.9%,11.8%,–
CC1(CCO)CC2(CCC(C(C)(C)C)CC2)OO1 (stereo not drawn) [LX-603],94.1%,263%,91.7%,332%,53.6%,74.1%,"viability at 30 µM (A549; [10]): 17.5%; viability at 10 µM [2, 11]: 51.6%; viability at 30 µM [2, 12]: 16.8%"
CONC(=O)[C@]12CCC(C)(C)C[C@H]1[C@H]1C(=O)C=C3[C@@]4(C)C=C(C#N)C(=O)C(C)(C)[C@@H]4CC[C@@]3(C)[C@]1(C)CC2 [LX-2310],100%,315%,53.7%,319%,3.5%,6.9%,–
C[C@@H]1C(=O)C(C#N)=C[C@]2(C)c3nn(C)c(-c4ccccc4)c3CC[C@@H]12 [LX-2312],96.3%,293%,48.6%,339%,7.8%,5.2%,–
CCCC[C@H]1Cc2c([nH]c3ccccc23)[C@H](c2ccc(NC3CCC3)cc2)N1C(=O)C#C[Si](C)(C)C [LX-422],–,–,–,–,–,–,"viability at 1.1 µM (A549; [13]): 4.8%; activity at 30 µM (HMGN1 [1]): 294%; viability at 1.1 µM [2, 14]: 1.8%; activity at 30 µM (HMGN1 [3]; [15]): 336%"
"COC(=O)C1=C(C)NC(C)=C(C(=O)OC(C)(C)CN(C)CCC(c2ccccc2)c2ccccc2)C1c1cccc([N+](=O)[O-])c1 (stereo not drawn) [LX-2801, Lercanidipine, reference compound]",89.6%,241%,104%,315%,58.6%,98.5%,"viability at 30 µM (A549; [10]): 14.2%; viability at 10 µM [2, 11]: 51.2%; viability at 30 µM [2, 12]: 25.3%"
CN(C)CCn1cc(-c2ccc(F)cc2)c(-n2cccc2)n1 [LX-909],–,267%,–,–,–,–,"Survival (%) (A549; 1.1 μM test compound, CellTiter-Glo): 96.7%; Survival (%) (A549; 10 μM test compound, CellTiter-Glo): 85.6%; Survival (%) (A549; 30 μM test compound, CellTiter-Glo): 77.2%; Survival (%) (A549; 90 μM test compound, CellTiter-Glo): 17.5%; Survival (%) ([2]; 1.1 μM test compound, doxorubicin-induced senescent foreskin cells, CellTiter-Glo, 0 μM = 100): 100.5%; Survival (%) ([2]; 10 μM test compound, doxorubicin-induced senescent foreskin cells, CellTiter-Glo, 0 μM = 100): 75.1%; Survival (%) ([2]; 30 μM test compound, doxorubicin-induced senescent foreskin cells, CellTiter-Glo, 0 μM = 100): 2.8%; Survival (%) ([2]; […] test compound, doxorubicin-induced senescent foreskin cells, CellTiter-Glo, 0 μM = 100): 85.5%; activity at 90 µM (HMGN1 [3]; [16]): 240%"
"CCOc1cc2ncc(C#N)c(Nc3ccc(OCc4ccccn4)c(Cl)c3)c2cc1NC(=O)/C=C/CN(C)C [LX-1608, Neratinib, reference compound]",–,–,–,–,–,–,"viability at 1.1 µM (A549; [13]): 59.3%; viability at 10 µM (A549; [13]): 24.7%; viability at 30 µM (A549; [13]): 2.6%; activity at 30 µM (HMGN1 [1]): 296%; viability at 1.1 µM [2, 14]: 45.1%; viability at 10 µM [2, 14]: 3.9%; activity at 30 µM (HMGN1 [3]; [15]): 317%"
COC(=O)c1ccc([C@@H]2c3ccc(OC)cc3C[C@H](C(=O)OC)N2C(=O)CCl)cc1 [LX-417],43.5%,294%,21.8%,347%,–,–,–
O=S(=O)(NC1CCCCC1)c1ccc2c(c1)C(=NO)c1cc(S(=O)(=O)NC3CCCCC3)ccc1-2 [LX-602],102%,248%,79%,248%,99%,55.2%,"viability at 30 µM (A549; [10]): 41.8%; viability at 90 µM (A549; [17]): 2.7%; viability at 10 µM [2, 11]: 25.9%; viability at 30 µM [2, 12]: 16.1%"
CCCC[C@H]1Cc2c([nH]c3ccccc23)[C@H](c2ccc(C(=O)NC34CC5CC(CC(C5)C3)C4)cc2)N1C(=O)CCl [LX-420],10%,286%,0%,307%,–,–,–
"Cc1ccc(Nc2nccc(N(C)c3ccc4c(C)n(C)nc4c3)n2)cc1S(N)(=O)=O [LX-3301, Pazopanib, reference compound]",100%,–,100%,–,85.9%,99.2%,"viability at 30 µM (A549; [10]): 51.9%; viability at 90 µM (A549; [17]): 4.2%; activity at 90 µM (HMGN1 [1]; 90 μM test compound, doxorubicin-treated foreskin cells, DMSO = 100): 228%; viability at 10 µM [2, 11]: 67.4%; viability at 30 µM [2, 12]: 39.5%; viability at 90 µM [2, 18]: 2.7%; activity at 90 µM (HMGN1 [3]; [16]): 229%"
"CCCCCCCCCCCCCCCC[P+](c1ccccc1)(c1ccccc1)c1ccccc1 [LX-1201, Hexadecyltriphenylphosphonium]",–,–,–,–,–,–,"viability at 1.1 µM (A549; [13]): 47.3%; activity at 30 µM (HMGN1 [1]): 311%; viability at 1.1 µM [2, 14]: 23%; activity at 30 µM (HMGN1 [3]; [15]): 289%"
O=C(C(C[N+](=O)[O-])=NO)N1CCN(C(c2ccc(Cl)cc2)c2ccc(Cl)cc2)CC1 [LX-403],40.2%,275%,36.9%,320%,3.5%,15.5%,"viability at 10 µM [2, 11]: 6.5%"
"C[C@H]1[C@H](C)CC[C@]2(C(=O)O)CC[C@]3(C)C(=CC[C@@H]4[C@@]5(C)C[C@@H](O)[C@H](O)C(C)(C)[C@@H]5CC[C@]43C)[C@H]12 [LX-2002, Corosolic acid]",99.6%,305%,101%,314%,10.4%,12.4%,–
"CN(C)C(=S)N/N=C1\CCCc2cccnc21 [LX-802, 2-(6,7-Dihydroquinolin-8(5H)-ylidene)-N^4,N^4-dimethylhydrazine-1-carbothioamide]",62.7%,301%,42.7%,329%,–,5.7%,–
"CC1(C)C=C2[C@H]3CC[C@@H]4[C@@]5(C)CCC(=O)C(C)(C)[C@@H]5CC[C@@]4(C)[C@]3(C)CC[C@@]2(C(=O)O)CC1 [LX-2007, Moronic acid]",111%,–,105%,–,96.3%,98.9%,"viability at 30 µM (A549; [10]): 87.9%; viability at 90 µM (A549; [17]): 62.8%; viability at 270 µM (A549; Homo sapiens, A549, doxorubicin-induced senescent A549 cancer cells, 270 μM test compound, CellTiter-Glo, read-out: Survival (%)): 32.4%; activity at 270 µM (HMGN1 [1]; 270 μM test compound, doxorubicin-treated foreskin cells, DMSO = 100): 255%; viability at 10 µM [2, 11]: 91.2%; viability at 30 µM [2, 12]: 83.9%; viability at 90 µM [2, 18]: 47.2%; viability at 270 µM ([2]; Homo sapiens, 72 h, 270 μM test compound, doxorubicin-induced senescent foreskin cells, CellTiter-Glo, 0 μM = 100, read-out: Survival (%)): 1.3%; activity at 270 µM (HMGN1 [3]; A549, doxorubicin-induced senescent A549 cells, test compound 270 μM, ELISA, DMSO = 100, read-out: HMGN1 (amount of HMGN1 secreted in the cell culture)): 192%"
C[C@H]1Cc2c([nH]c3ccccc23)[C@H](c2ccc([Si](C)(C)C)cc2)N1C(=O)CCl [LX-412],4.8%,293%,0.3%,327%,–,–,–
C[C@@H]1C(=O)C(C#N)=C[C@]2(C)c3nc(CCO)n(-c4ccccc4)c3CC[C@@H]12 [LX-2409],88.5%,239%,37.1%,281%,26.4%,12.8%,–
